Data taken from patent US5770178A, “Metal chelate forming peptides and use thereof” (Nihon Medi-Physics Co., Ltd., priority 1994, dated 1998).
Where no end group is shown, it is not given here.

Experiments:
[1] = system: Tumor cells HEp2 (Human Epidermoid Carcinoma); assay: Imaging of tumor in model mouse, tumor/muscle radioactivity ratio; assay type: in vivo, BALB/C nude mouse; conditions: i.v.
Protocol: Tumor cells HEp2 (5×10^6 cells, Human Epidermoid Carcinoma; ATCC No. CCL 23) were suspended in 1.0 ml of medium (Minimum essential medium (Eagle's) with Earle's BSS, 90% fetal bovine serum, 10%), and 100 μl of the suspension was subcutaneously injected to BALB/C nude mouse (6 weeks age) at the body side. […] Five and 20 minutes after the injection, the animal was imaged with a gamma camera.
Immediately after the imaging, the animal was sacrificed and examined for the distribution of the radioactivity in each organ using NaI single channel analyzer to determine a ratio of the radioactivity in tumor site to the radioactivity in muscle site (T/B ratio).

[2] = system: inflammation site (Staphylococcus aureus); conditions: S. aureus inflammation rat, i.v.
Protocol: Staphylococcus aureus 10^8 cells were suspended in 1 ml of physiological saline, and 100 μl of the suspension was intramuscularly administered to SD rats weighing about 220 g at the right calf. […] Thirty and 120 minutes after the peptide was injected, the animal was imaged with a gamma camera. Regions of interest were selected from the obtained image to determine a ratio T/B of the radioactivity in inflammation site (T) to the radioactivity in normal site (B).

## Tc-99m-KYCAREPPTRTNAYWGQG (also: Tc-99m label)
[1]; 20 minutes after injection
  Imaging of tumor site (gamma camera): clearly imaged
[1]; twenty minutes after injection, n=3
  ratio of the radioactivity in tumor site to the radioactivity in muscle site (T/B ratio): 4.50±0.71

## Tc-99m-KYCGGKTKPREQQYNSTYRVV-NH2
[2]; 30 and 120 minutes after injection
  Imaging of inflammation site (gamma camera): clearly imaged
[2]; regions of interest of image, n=6
  ratio T/B of the radioactivity in inflammation site (T) to the radioactivity in normal site (B): 3.26±0.18
